Entries after “also recorded” stand apart in the source; their conditions may differ.
Columns and labels:
Format in all cases: cell-based, human
SAT1 [1] = test: SAT1 mRNA and protein expression in LNCaP cells treated with BENSpm; details: BENSpm 0.1 to 10 μM
Protocol: (§1) FIG. 11 depicts a Western blot showing AMD1, ODC1, SAT1 and B-actin protein expression in wild type LNCaP cells pretreated with +/−DHT for 24 hours followed by BENSpm for 96 hours.
(§2) We next analyzed whether the metabolic stress in CaP cells caused by high biosynthetic flux to maintain polyamine pools can be enhanced by increasing the activity of SAT1. We tested whether this could cause increased secretion of acetylated polyamines, putting intracellular pools in deficit, which should necessitate more biosynthesis, and should therefore potentiate any benefit of inhibiting the MSP. To conduct this analysis we used LNCaP cells that stably overexpress SAT1 in a Tet-off system (LNG53 cells, described in Kee, K., et al. J Biol Chem 279, 27050-27058 (2004)).

AMD1 = test: Western blot of AMD1 in LNCaP cells treated with BENSpm; details: BENSpm for 96 hours
Protocol: as §1, §2

SAT1 [2] = test: SAT1 activity in response to BENSpm treatment
From the text: as §2

DU145 = test: Proliferation of DU145, BENSpm 24 h pre-treatment then 96 hr MTDIA; details: AR negative DU145, 2.5 μM BENSpm
Protocol: (§3) Tet was removed 24 hours prior to 96 hr treatment with MTDIA. […] Cells were pre-treated with BENSpm for 24 hours followed by 96 hr treatment with MTDIA.
as §2

ODC1 = test: Western blot of ODC1 in LNCaP cells treated with BENSpm; details: BENSpm for 96 hours
Protocol: as §1, §2

LNCaP = test: Proliferation of wild type LNCaP, BENSpm 24 h pre-treatment then 96 hr MTDIA
Protocol: as §3, §2

MTAP [3] = test: Western blot of MTAP protein expression in FaDu; details: 10 and 20 uM MTA for 4 days
Protocol: (§4) FIG. 9. (A) Proliferation curves for LNCaP, DU145 and PC3 treated with MTDIA in the absence or presence of 10 or 20 uM MTA, for 4 and (B) 8 days. […] (C) Western blot analysis of FaDu, LNCaP, and DU145 cells after indicated treatments of MTA (0, 10, or 20 uM) or the respective 4 day IC25 and IC50 dose of MTDIA for each cell line plus or minus MTA immunoblotted with antibodies against MTAP, SMS, and SRM, with B-actin as a loading control. Western blot images are representative of biological triplicates.
(§5) Western Blotting—Whole cell extracts were prepared in RIPA buffer (150 mM NaCl, 1.0% NP-40, 0.5% deoxycholate, 0.1% SDS, 50 mM Tris-HCl pH 8.0, 5 mM EDTA and 0.5 mM PMSF) supplemented with 1× proteinase inhibitor. Protein concentrations were determined by Bradford Assay (Thermo Scientific, Cat #1856209). […] MTAP for Westerns was purchased from Proteintech™ (Cat #11475-1-AP. SRM and SMS were purchased from Abcam® (Cat #ab111884 and ab156879). B-actin antibody for Westerns was purchased from Sigma-Aldrich (Cat #A5441) and GAPDH was from Santa Cruz Biotecnology Inc. (Cat #sc-25778). Films were scanned using the Biorad ChemiDoc XRS, and band intensities were calculated using Image Lab™. Intensity values were normalized to B-actin loading control band intensities and made relative to control treatment conditions.

MTAP [4] = test: Western blot of MTAP protein expression in DU145; details: DU145, 10 and 20 uM MTA for 4 days
Protocol: as §4, §5

MTAP [5] = test: Western blot of MTAP protein expression in LNCaP; details: MTA treatment
Protocol: as §4, §5

| SMILES | SAT1 mRNA (SAT1 [1]) | SAT1 protein (SAT1 [1]) | effect on AMD1 (AMD1) | SAT1 activity, dose dependent increase (SAT1 [2]; (+) dihydrotestosterone (DHT) conditions) | SAT1 activity, dose dependent increase (SAT1 [2]; (−) DHT conditions) | sensitivity to MTDIA (DU145) | effect on ODC1 (ODC1) | sensitivity to MTDIA (LNCaP; 2.5 μM BENSpm) | effect on proliferation (LNCaP; 2.5 μM BENSpm alone) | MTAP protein expression (MTAP [3]) | MTAP protein expression (MTAP [4]) | MTAP levels (MTAP [5]) |
| --- | --- | --- | --- | --- | --- | --- | --- | --- | --- | --- | --- | --- |
| CCNCCCNCCCNCCCNCC [BENSpm, N(1),N(11)-bisethylnorspermine] | increased | increased | minimal effects | 17-40 fold | 6-20 fold | more sensitive to MTDIA; also recorded: strongly increased sensitivity to MTDIA | minimal effects | more sensitive to MTDIA; also recorded: greatly increased sensitivity to MTDIA | no effect on proliferation | – | – | – |
| CSC[C@H]1O[C@@H](n2cnc3c(N)ncnc32)[C@H](O)[C@@H]1O [MTA] | – | – | – | – | – | – | – | – | – | slightly decreased | slightly increased | unchanged |

Reference: patent US11045473B2, “Compositions and methods for therapy of prostate cancer using drug combinations to target polyamine biosynthesis and related pathways” (Health Research, Inc., priority 2015, dated 2021)
